Data taken from PubChem BioAssay AID1963958 (Molecular Pharmacology Branch, DTP, NCI, 2024).

System: MDA-MB-231 multicell spheroids, viability
Assay: Anticancer human tumor MDA-MB-231 cell line growth inhibition [PI3K];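 also: spheroids exposed to agents for seven days before reading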;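 as to viability, T/C: percent of vehicle control luminescence with DMSO treated spheroids as 100%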
Conditions: for IC50: curve of first compound; for viability, T/C: stronger effect = lower value
How it was run: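 Three cell types, namely tumor cells, endothelial cells and mesenchymal stem cells, formed each spheroid. Combinations with four PI3K inhibitors were screened at clinically achievable concentrations decreasing by half-log, and spheroid viability was recorded.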

[1] = second compound 0.00316 µM, first compound 0.0316 µM
[2] = second compound 0.00316 µM, first compound 0.1 µM
[3] = second compound 0.01 µM, first compound 0.0316 µM
[4] = second compound 0.01 µM, first compound 0.1 µM
[5] = second compound 0.0316 µM, first compound 0.0316 µM
[6] = second compound 0.0316 µM, first compound 0.1 µM
[7] = second compound 0.1 µM, first compound 0.0316 µM
[8] = second compound 0.1 µM, first compound 0.1 µM
[9] = second compound 0.316 µM, first compound 0.0316 µM
[10] = second compound 0.316 µM, first compound 0.1 µM
[11] = second compound 1 µM, first compound 0.0316 µM
[12] = second compound 1 µM, first compound 0.1 µM
[13] = second compound 0.00316 µM, first compound 0.316 µM
[14] = second compound 0.00316 µM, first compound 1 µM
[15] = second compound 0.00316 µM, first compound 3.16 µM
[16] = second compound 0.00316 µM, first compound 10 µM
[17] = second compound 0.01 µM, first compound 0.316 µM
[18] = second compound 0.01 µM, first compound 1 µM
[19] = second compound 0.01 µM, first compound 3.16 µM
[20] = second compound 0.01 µM, first compound 10 µM
[21] = second compound 0.0316 µM, first compound 0.316 µM
[22] = second compound 0.0316 µM, first compound 1 µM
[23] = second compound 0.0316 µM, first compound 3.16 µM
[24] = second compound 0.0316 µM, first compound 10 µM
[25] = second compound 0.1 µM, first compound 0.316 µM
[26] = second compound 0.1 µM, first compound 1 µM
[27] = second compound 0.1 µM, first compound 3.16 µM
[28] = second compound 0.1 µM, first compound 10 µM
[29] = second compound 0.316 µM, first compound 0.316 µM
[30] = second compound 0.316 µM, first compound 1 µM
[31] = second compound 0.316 µM, first compound 3.16 µM
[32] = second compound 0.316 µM, first compound 10 µM
[33] = second compound 1 µM, first compound 0.316 µM
[34] = second compound 1 µM, first compound 1 µM
[35] = second compound 1 µM, first compound 3.16 µM
[36] = second compound 1 µM, first compound 10 µM

CC(C)n1nc(-c2ccc3oc(N)nc3c2)c2c(N)ncnc21 + COc1c(OCCCN2CCOCC2)ccc2c3n(c(=NC(=O)c4cnc(N)nc4)nc12)CCN3
IC50 (second compound 0.00316 µM): 46.8 nM | IC50 (second compound 0.01 µM): 19.5 nM | IC50 (second compound 0.0316 µM): 5.36 nM | IC50 (second compound 0.1 µM): < 0.316 nM | IC50 (second compound 0.316 µM): < 0.316 nM | IC50 (second compound 1 µM): < 0.316 nM | viability, T/C (second compound 0.00316 µM, first compound 0.000316 µM): 98.6% | viability, T/C (second compound 0.00316 µM, first compound 0.001 µM): 93.6% | viability, T/C (second compound 0.00316 µM, first compound 0.00316 µM): 83.9% | viability, T/C (second compound 0.00316 µM, first compound 0.01 µM): 76.1% | viability, T/C [1]: 55.6% | viability, T/C [2]: 36.9% | viability, T/C (second compound 0.01 µM, first compound 0.000316 µM): 78.3% | viability, T/C (second compound 0.01 µM, first compound 0.001 µM): 78.5% | viability, T/C (second compound 0.01 µM, first compound 0.00316 µM): 68.8% | viability, T/C (second compound 0.01 µM, first compound 0.01 µM): 58.3% | viability, T/C [3]: 44.3% | viability, T/C [4]: 29.1% | viability, T/C (second compound 0.0316 µM, first compound 0.000316 µM): 57.7% | viability, T/C (second compound 0.0316 µM, first compound 0.001 µM): 59.3% | viability, T/C (second compound 0.0316 µM, first compound 0.00316 µM): 54.4% | viability, T/C (second compound 0.0316 µM, first compound 0.01 µM): 44.2% | viability, T/C [5]: 32.2% | viability, T/C [6]: 21.4% | viability, T/C (second compound 0.1 µM, first compound 0.000316 µM): 47% | viability, T/C (second compound 0.1 µM, first compound 0.001 µM): 45.8% | viability, T/C (second compound 0.1 µM, first compound 0.00316 µM): 40.1% | viability, T/C (second compound 0.1 µM, first compound 0.01 µM): 34.7% | viability, T/C [7]: 26.6% | viability, T/C [8]: 19.8% | viability, T/C (second compound 0.316 µM, first compound 0.000316 µM): 34.2% | viability, T/C (second compound 0.316 µM, first compound 0.001 µM): 31.5% | viability, T/C (second compound 0.316 µM, first compound 0.00316 µM): 28.9% | viability, T/C (second compound 0.316 µM, first compound 0.01 µM): 25.4% | viability, T/C [9]: 21.9% | viability, T/C [10]: 18.5% | viability, T/C (second compound 1 µM, first compound 0.000316 µM): 26% | viability, T/C (second compound 1 µM, first compound 0.001 µM): 23.9% | viability, T/C (second compound 1 µM, first compound 0.00316 µM): 23.8% | viability, T/C (second compound 1 µM, first compound 0.01 µM): 23% | viability, T/C [11]: 24.5% | viability, T/C [12]: 22.5%

CC1(C)CCC(CN2CCN(c3ccc(C(=O)NS(=O)(=O)c4ccc(NCC5CCOCC5)c([N+](=O)[O-])c4)c(Oc4cnc5[nH]ccc5c4)c3)CC2)=C(c2ccc(Cl)cc2)C1 + COc1c(OCCCN2CCOCC2)ccc2c3n(c(=NC(=O)c4cnc(N)nc4)nc12)CCN3
IC50 (second compound 0.00316 µM): > 10000 nM | IC50 (second compound 0.01 µM): > 10000 nM | IC50 (second compound 0.0316 µM): > 10000 nM | IC50 (second compound 0.1 µM): < 31.6 nM | IC50 (second compound 0.316 µM): < 31.6 nM | IC50 (second compound 1 µM): < 31.6 nM | viability, T/C [1]: 100% | viability, T/C [2]: 96.4% | viability, T/C [13]: 96.8% | viability, T/C [14]: 104% | viability, T/C [15]: 102% | viability, T/C [16]: 104% | viability, T/C [3]: 82.1% | viability, T/C [4]: 80.1% | viability, T/C [17]: 85% | viability, T/C [18]: 91.1% | viability, T/C [19]: 85.2% | viability, T/C [20]: 83.9% | viability, T/C [5]: 65.9% | viability, T/C [6]: 66.4% | viability, T/C [21]: 65.2% | viability, T/C [22]: 65.7% | viability, T/C [23]: 67.4% | viability, T/C [24]: 66.5% | viability, T/C [7]: 46.2% | viability, T/C [8]: 45.6% | viability, T/C [25]: 48.1% | viability, T/C [26]: 47.7% | viability, T/C [27]: 48.9% | viability, T/C [28]: 44.9% | viability, T/C [9]: 35.6% | viability, T/C [10]: 34.8% | viability, T/C [29]: 36.1% | viability, T/C [30]: 35.3% | viability, T/C [31]: 35.8% | viability, T/C [32]: 33.6% | viability, T/C [11]: 25.7% | viability, T/C [12]: 26.2% | viability, T/C [33]: 24.5% | viability, T/C [34]: 23.9% | viability, T/C [35]: 25.1% | viability, T/C [36]: 22.2%

CCCS(=O)(=O)Nc1ccc(F)c(C(=O)c2c[nH]c3ncc(-c4ccc(Cl)cc4)cc23)c1F + COc1c(OCCCN2CCOCC2)ccc2c3n(c(=NC(=O)c4cnc(N)nc4)nc12)CCN3
IC50 (second compound 0.00316 µM): 5140 nM | IC50 (second compound 0.01 µM): 3480 nM | IC50 (second compound 0.0316 µM): 1650 nM | IC50 (second compound 0.1 µM): < 31.6 nM | IC50 (second compound 0.316 µM): < 31.6 nM | IC50 (second compound 1 µM): < 31.6 nM | viability, T/C [1]: 104% | viability, T/C [2]: 103% | viability, T/C [13]: 96.6% | viability, T/C [14]: 76.5% | viability, T/C [15]: 63.1% | viability, T/C [16]: 34.8% | viability, T/C [3]: 74.4% | viability, T/C [4]: 91.3% | viability, T/C [17]: 80.4% | viability, T/C [18]: 67.6% | viability, T/C [19]: 53% | viability, T/C [20]: 32.3% | viability, T/C [5]: 65.1% | viability, T/C [6]: 64.7% | viability, T/C [21]: 62.7% | viability, T/C [22]: 57% | viability, T/C [23]: 41% | viability, T/C [24]: 25.3% | viability, T/C [7]: 48% | viability, T/C [8]: 49.8% | viability, T/C [25]: 50% | viability, T/C [26]: 44.5% | viability, T/C [27]: 34% | viability, T/C [28]: 20.9% | viability, T/C [9]: 34.8% | viability, T/C [10]: 35.1% | viability, T/C [29]: 34.4% | viability, T/C [30]: 30.7% | viability, T/C [31]: 24.4% | viability, T/C [32]: 15.7% | viability, T/C [11]: 28.2% | viability, T/C [12]: 28.3% | viability, T/C [33]: 26.7% | viability, T/C [34]: 24.9% | viability, T/C [35]: 20.3% | viability, T/C [36]: 13.2%
